In ChEMBL document CHEMBL1133949, “Development of C-20 modified betulinic acid derivatives as antitumor agents” (Bioorg Med Chem Lett, 2001):

Assays:
PC-3 = assay: Cytotoxicity of compound against human prostate adenocarcinoma (PC3) using SRB assay; format: functional, cell-based, Prostate gland
SK-MEL-2 [1] = assay: Cytotoxicity of compound against SK-MEL-2 using SRB assay; format: functional, cell-based, Homo sapiens
UACC-257 = assay: Cytotoxicity of compound against human melanoma cell lines (UACC-257) using MTT assay; format: functional
M14 = assay: Cytotoxicity of compound against human melanoma cell lines (M14-MEL) using MTT assay; format: functional
SK-MEL-2 [2] = assay: Cytotoxicity of compound against human melanoma cell lines (SK-MEL-2) using MTT assay; format: functional
HCT-116 = assay: Cytotoxicity of compound against human colon carcinoma (HCT116) using MTT assay; format: functional

For `CO/N=C1\CC[C@]2(C)[C@H]3CC[C@@H]4[C@H]5[C@H](C(C)C)CC[C@]5(C(=O)O)CC[C@@]4(C)[C@]3(C)CC[C@H]2C1(C)C`, the EC50 (PC-3) was > 16.4 µM and the EC50 (SK-MEL-2 [1]) was > 21.2 µM.
For `CC(C)[C@@H]1CC[C@]2(C(=O)O)CC[C@]3(C)[C@H](CC[C@@H]4[C@@]5(C)CC/C(=N\O)C(C)(C)[C@@H]5CC[C@]43C)[C@@H]12`, the EC50 (PC-3) was > 3 µM and the EC50 (SK-MEL-2 [1]) was > 3.4 µM.
With `C=C(CNOC)[C@@H]1CC[C@]2(C(=O)O)CC[C@]3(C)[C@H](CC[C@@H]4[C@@]5(C)CC[C@H](O)C(C)(C)[C@@H]5CC[C@]43C)[C@@H]12` the EC50 (PC-3) was > 50 µM and the EC50 (SK-MEL-2 [1]) was > 50 µM.
With `C=C(CNO)[C@@H]1CC[C@]2(C(=O)O)CC[C@]3(C)[C@H](CC[C@@H]4[C@@]5(C)CC[C@H](O)C(C)(C)[C@@H]5CC[C@]43C)[C@@H]12` the EC50 (PC-3) was > 50 µM and the EC50 (SK-MEL-2 [1]) was > 50 µM.
For `CO/N=C(/C)[C@@H]1CC[C@]2(C(=O)O)CC[C@]3(C)[C@H](CC[C@@H]4[C@@]5(C)CC[C@H](O)C(C)(C)[C@@H]5CC[C@]43C)[C@@H]12`, the EC50 (PC-3) was > 50 µM, the GI50 (UACC-257) was > 50 µM and the EC50 (SK-MEL-2 [1]) was > 50 µM. For the same compound, the GI50 (M14) was > 50 µM, the GI50 (SK-MEL-2 [2]) was > 50 µM and the GI50 (HCT-116) was > 50 µM.
`C=C(C)[C@@H]1CC[C@]2(C(=O)O)CC[C@]3(C)[C@H](CC[C@@H]4[C@@]5(C)CC[C@H](OC(C)=O)C(C)(C)[C@@H]5CC[C@]43C)[C@@H]12` was tested, and the EC50 (PC-3) was > 7.2 µM, the GI50 (UACC-257) was > 4.5 µM and the EC50 (SK-MEL-2 [1]) was > 6.9 µM. The GI50 (M14) was > 6.4 µM, the GI50 (SK-MEL-2 [2]) was > 3.9 µM and the GI50 (HCT-116) was > 11.3 µM.
For `C=C(COC)[C@@H]1CC[C@]2(C(=O)O)CC[C@]3(C)[C@H](CC[C@@H]4[C@@]5(C)CC[C@H](O)C(C)(C)[C@@H]5CC[C@]43C)[C@@H]12`, the EC50 (PC-3) was > 9.4 µM, the GI50 (UACC-257) was > 12.7 µM and the EC50 (SK-MEL-2 [1]) was > 10.1 µM. For the same compound, the GI50 (M14) was > 9 µM, the GI50 (SK-MEL-2 [2]) was > 50 µM and the GI50 (HCT-116) was > 8.6 µM.
`C=C(CO)[C@@H]1CC[C@]2(C(=O)O)CC[C@]3(C)[C@H](CC[C@@H]4[C@@]5(C)CC[C@H](O)C(C)(C)[C@@H]5CC[C@]43C)[C@@H]12` was tested, and the EC50 (PC-3) was > 8.4 µM, the GI50 (UACC-257) was > 50 µM and the EC50 (SK-MEL-2 [1]) was > 9 µM. For the same compound, the GI50 (M14) was > 16.2 µM, the GI50 (SK-MEL-2 [2]) was > 9.3 µM and the GI50 (HCT-116) was > 9.8 µM.
For `CC(O)[C@@H]1CC[C@]2(C(=O)O)CC[C@]3(C)[C@H](CC[C@@H]4[C@@]5(C)CC[C@H](O)C(C)(C)[C@@H]5CC[C@]43C)[C@@H]12` (stereo not given in full), the EC50 (PC-3) was > 50 µM, the GI50 (UACC-257) was > 50 µM and the EC50 (SK-MEL-2 [1]) was > 50 µM. The GI50 (M14) was > 50 µM, the GI50 (SK-MEL-2 [2]) was > 50 µM and the GI50 (HCT-116) was > 50 µM.
With `C/C(=N/O)[C@@H]1CC[C@]2(C(=O)O)CC[C@]3(C)[C@H](CC[C@@H]4[C@@]5(C)CC[C@H](O)C(C)(C)[C@@H]5CC[C@]43C)[C@@H]12` the EC50 (PC-3) was > 50 µM, the GI50 (UACC-257) was > 50 µM and the EC50 (SK-MEL-2 [1]) was > 50 µM. For the same compound, the GI50 (M14) was > 50 µM, the GI50 (SK-MEL-2 [2]) was > 50 µM and the GI50 (HCT-116) was > 50 µM.
Work on `C=C(C)[C@@H]1CC[C@]2(C(=O)O)CC[C@]3(C)[C@H](CC[C@@H]4[C@@]5(C)CC[C@H](O)C(C)(C)[C@@H]5CC[C@]43C)[C@@H]12` [BETULINIC ACID] yielded an EC50 (PC-3) of 1.9 µM, a GI50 (UACC-257) of 1.5 µM and an EC50 (SK-MEL-2 [1]) of 2.2 µM. For the same compound, the GI50 (M14) was 2.7 µM, the GI50 (SK-MEL-2 [2]) was 3.2 µM and the GI50 (HCT-116) was 2.7 µM.
With `CC(C)[C@@H]1CC[C@]2(C(=O)O)CC[C@]3(C)C(CCC4[C@@]5(C)CC[C@H](O)C(C)(C)C5CC[C@]43C)C12` (stereo not given in full) [DIHYDROBETULINIC ACID] the EC50 (PC-3) was > 2.2 µM and the EC50 (SK-MEL-2 [1]) was > 2 µM.
With `CC(C)[C@@H]1CC[C@]2(C(=O)O)CC[C@]3(C)[C@H](CC[C@@H]4[C@@]5(C)CCC(=O)C(C)(C)[C@@H]5CC[C@]43C)[C@@H]12` [DIHYDROBETULONIC ACID] the EC50 (PC-3) was > 1.3 µM and the EC50 (SK-MEL-2 [1]) was > 1.6 µM.
`CC(=O)[C@@H]1CC[C@]2(C(=O)O)CC[C@]3(C)[C@H](CC[C@@H]4[C@@]5(C)CC[C@H](O)C(C)(C)[C@@H]5CC[C@]43C)[C@@H]12` [PLATANIC ACID] was tested, and the EC50 (PC-3) was > 50 µM, the GI50 (UACC-257) was > 50 µM and the EC50 (SK-MEL-2 [1]) was > 50 µM. For the same compound, the GI50 (M14) was > 50 µM, the GI50 (SK-MEL-2 [2]) was > 50 µM and the GI50 (HCT-116) was > 50 µM.
